Measurements as given in patent US20250171437A1 (Agios Pharmaceuticals,Inc., priority 2022, published 2025).

Target: T1, human PAH with the R408W mutation (A375 R408W cells) (Homo sapiens, UniProt P00439, R408W)
T1 construct: expressed in transfected cells
T1 sequence (P00439 1-452 R408W): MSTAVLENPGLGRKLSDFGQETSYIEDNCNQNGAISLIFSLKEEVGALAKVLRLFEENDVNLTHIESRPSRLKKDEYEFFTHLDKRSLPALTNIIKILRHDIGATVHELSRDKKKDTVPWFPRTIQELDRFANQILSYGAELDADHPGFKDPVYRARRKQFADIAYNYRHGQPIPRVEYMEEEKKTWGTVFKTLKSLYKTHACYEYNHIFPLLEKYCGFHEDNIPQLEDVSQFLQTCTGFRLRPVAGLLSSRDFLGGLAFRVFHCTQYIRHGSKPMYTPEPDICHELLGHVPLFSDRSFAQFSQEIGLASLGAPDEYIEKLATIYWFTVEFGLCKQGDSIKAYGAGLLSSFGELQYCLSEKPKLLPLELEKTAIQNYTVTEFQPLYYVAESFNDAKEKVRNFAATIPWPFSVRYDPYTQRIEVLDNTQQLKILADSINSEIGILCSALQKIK
Experiment: Cell Based Phenylalanine Flux Assay
Settings: 24 hrs with compound, then 20 μM sepiapterin and 800 μM 13C9,15N-Phenylalanine for 4 hours, 13C-Tyrosine by LC-MS, average where tested multiple times
Procedure, shortened: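 AC50 is derived from LC-MS of 13C-tyrosine in the media after a 4 h pulse of 800 μM 13C9,15N-phenylalanine plus 20 μM sepiapterin. The A375 R408W PAH cells had received duplicate 10-point, 2-fold compound dilutions (0.5% DMSO) for 24 h beforehand.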

[1] = A375 cells expressing R408W PAH

SMILES | AC50 (A375 R408W cells) [µM] | AC50 [1] [µM]
O=C(c1ocnc1C1CC1)N1CCc2[nH]cnc2[C@H]1c1nc2cc(F)ccc2o1 [Example 41, (S)-(4-cyclopropyloxazol-5-yl)(4-(5-fluorobenzo[d]oxazol-2-yl)-6,7-dihydro-1H-imidazo[4,5-c]pyridin-5(4H)-yl)methanone] | ≤ 0.5 | 
Cn1nc(C(F)F)nc1C(=O)N1CCc2[nH]cnc2C1c1nc2c(F)cc(F)cc2o1 (stereo not drawn) |  | 1 to 5
Cc1cccc2oc([C@@H]3c4nc[nH]c4CCN3C(=O)c3cnco3)nc12 [Example 509, (S)-(4-(4-methylbenzo[d]oxazol-2-yl)-6,7-dihydro-1H-imidazo[4,5-c]pyridin-5(4H)-yl)(oxazol-5-yl)methanone] | ≤ 0.5 | 
Cn1nc(C(F)F)nc1C(=O)N1CCc2[nH]cnc2C1c1nc2c(F)c(F)ccc2o1 (stereo not drawn) |  | 1 to 5
Cc1nc([C@H](C)O)oc1C(=O)N1CCc2[nH]cnc2[C@H]1c1nc2ccc(F)cc2o1 [Example 241, ((S)-4-(6-fluorobenzo[d]oxazol-2-yl)-6,7-dihydro-1H-imidazo[4,5-c]pyridin-5(4H)-yl)(2-((S)-1-hydroxyethyl)-4-methyloxazol-5-yl)methanone] | 1 to 5 | 
Cc1cccc2nc([C@H]3c4nc[nH]c4CCN3C(=O)c3nnc(-c4cnn(C)c4)o3)oc12 [Example 566, (R)-(5-(1-methyl-1H-pyrazol-4-yl)-1,3,4-oxadiazol-2-yl)(4-(7-methylbenzo[d]oxazol-2-yl)-6,7-dihydro-1H-imidazo[4,5-c]pyridin-5(4H)-yl)methanone] | 1 to 5 | 
O=C(c1nnc(-c2ccccn2)o1)N1CCc2[nH]cnc2[C@H]1c1nc2cc(F)ccc2o1 [Example 39, (S)-(4-(5-fluorobenzo[d]oxazol-2-yl)-6,7-dihydro-1H-imidazo[4,5-c]pyridin-5(4H)-yl)(5-(pyridin-2-yl)-1,3,4-oxadiazol-2-yl)methanone] | 0.5 to 1 | 
O=C(CCc1ncco1)N1CCc2[nH]cnc2[C@@H]1c1nc2cccc(F)c2o1 [Example 388, (R)-1-(4-(7-fluorobenzo[d]oxazol-2-yl)-6,7-dihydro-1H-imidazo[4,5-c]pyridin-5(4H)-yl)-3-(oxazol-2-yl)propan-1-one] | ≥ 5 | 
O=C(c1oc(N2CCOCC2)nc1C(F)F)N1CCc2[nH]cnc2[C@H]1c1nc2cc(F)ccc2o1 [Example 413, (S)-(4-(difluoromethyl)-2-morpholinooxazol-5-yl)(4-(5-fluorobenzo[d]oxazol-2-yl)-6,7-dihydro-1H-imidazo[4,5-c]pyridin-5(4H)-yl)methanone] | 0.5 to 1 | 
CC(O)c1nc(Br)c(C(=O)N2CCc3[nH]cnc3[C@H]2c2nc3cc(F)ccc3o2)o1 (single isomer, unassigned) [Example 226] | ≤ 0.5 | 
O=C(c1cnn2cc(OCCn3cccn3)ccc12)N1CCc2[nH]cnc2C1c1nc2cc(F)ccc2o1 (stereo not drawn) |  | ≥ 5
CC(C)(C)c1nnc(C(=O)N2CCc3[nH]cnc3[C@H]2c2nc3c(F)ccc(F)c3o2)o1 [Example 852, (S)-(5-(tert-butyl)-1,3,4-oxadiazol-2-yl)(4-(4,7-difluorobenzo[d]oxazol-2-yl)-6,7-dihydro-1H-imidazo[4,5-c]pyridin-5(4H)-yl)methanone] | ≤ 0.5 | 
C[C@H](O)c1nc(C(F)F)c(C(=O)N2CCc3[nH]cnc3[C@@H]2c2nc3ccc(F)cc3o2)o1 [Example 232, (4-(difluoromethyl)-2-((S)-1-hydroxyethyl)oxazol-5-yl)((R)-4-(6-fluorobenzo[d]oxazol-2-yl)-6,7-dihydro-1H-imidazo[4,5-c]pyridin-5(4H)-yl)methanone] | 1 to 5 | 
O=C(c1ccnn1C(F)F)N1CCc2[nH]cnc2[C@@H]1c1nc2ccc(F)cc2o1 [Example 190, (R)-(1-(difluoromethyl)-1H-pyrazol-5-yl)(4-(6-fluorobenzo[d]oxazol-2-yl)-6,7-dihydro-1H-imidazo[4,5-c]pyridin-5(4H)-yl)methanone] | 1 to 5 | 
CC(C)(O)c1ncc(C(=O)N2CCc3[nH]cnc3C2c2nc3c(F)ccc(F)c3o2)o1 (stereo not drawn) |  | 1 to 5
Cn1nc(C(C)(C)O)cc1C(=O)N1CCc2[nH]cnc2C1c1nc2cc(F)ccc2o1 (stereo not drawn) |  | ≥ 5
O=C(c1ocnc1C(F)F)N1CCc2[nH]cnc2[C@H]1c1nc2cc(Cl)cc(F)c2o1 [Example 608, (S)-(4-(5-chloro-7-fluorobenzo[d]oxazol-2-yl)-6,7-dihydro-1H-imidazo[4,5-c]pyridin-5(4H)-yl)(4-(difluoromethyl)oxazol-5-yl)methanone] | ≤ 0.5 | 
Cn1nccc1-c1nnc(C(=O)N2CCc3[nH]cnc3[C@@H]2c2nc3cc(F)ccc3o2)o1 [Example 132, (R)-(4-(5-fluorobenzo[d]oxazol-2-yl)-6,7-dihydro-1H-imidazo[4,5-c]pyridin-5(4H)-yl)(5-(1-methyl-1H-pyrazol-5-yl)-1,3,4-oxadiazol-2-yl)methanone] | 1 to 5 | 
CC(C)(O)c1nc(Br)c(C(=O)N2CCc3[nH]cnc3[C@H]2c2nc3cc(F)ccc3o2)o1 [Example 124, (S)-(4-bromo-2-(2-hydroxypropan-2-yl)oxazol-5-yl)(4-(5-fluorobenzo[d]oxazol-2-yl)-6,7-dihydro-1H-imidazo[4,5-c]pyridin-5(4H)-yl)methanone] | 0.5 to 1 | 
O=C(c1cnc(-c2ccccn2)o1)N1CCc2[nH]cnc2[C@H]1c1nc2ccc(Br)cc2o1 [Example 7, (S)-(4-(6-bromobenzo[d]oxazol-2-yl)-6,7-dihydro-1H-imidazo[4,5-c]pyridin-5(4H)-yl)(2-(pyridin-2-yl)oxazol-5-yl)methanone] | 0.5 to 1 | 
Cn1ccc(-c2nnc(C(=O)N3CCc4[nH]cnc4[C@H]3c3nc4ccc(F)cc4o3)o2)n1 [Example 321, (S)-(4-(6-fluorobenzo[d]oxazol-2-yl)-6,7-dihydro-1H-imidazo[4,5-c]pyridin-5(4H)-yl)(5-(1-methyl-1H-pyrazol-3-yl)-1,3,4-oxadiazol-2-yl)methanone] | 0.5 to 1 | 
Cc1nc(-c2cnn(C)c2)oc1C(=O)N1CCc2[nH]cnc2C1c1nc2cc(F)ccc2o1 (stereo not drawn) |  | ≥ 5
C[C@@H](O)c1nc(C(F)F)c(C(=O)N2CCc3[nH]cnc3[C@H]2c2nc3c(F)cccc3o2)o1 [Example 229, (4-(difluoromethyl)-2-((R)-1-hydroxyethyl)oxazol-5-yl)((S)-4-(4-fluorobenzo[d]oxazol-2-yl)-6,7-dihydro-1H-imidazo[4,5-c]pyridin-5(4H)-yl)methanone] | ≤ 0.5 | 
O=C(c1cnco1)N1CCc2[nH]cnc2C1c1nc2ccc(F)cc2o1 (stereo not drawn) |  | ≥ 5
Cc1nc(C(C)(C)O)oc1C(=O)N1CCc2[nH]cnc2[C@@H]1c1nc2cccc(F)c2o1 [Example 267, (R)-(4-(7-fluorobenzo[d]oxazol-2-yl)-6,7-dihydro-1H-imidazo[4,5-c]pyridin-5(4H)-yl)(2-(2-hydroxypropan-2-yl)-4-methyloxazol-5-yl)methanone] | 1 to 5 | 
Cc1nc([C@H](C)O)oc1C(=O)N1CCc2[nH]cnc2[C@@H]1c1nc2cccc(F)c2o1 [Example 248, ((R)-4-(7-fluorobenzo[d]oxazol-2-yl)-6,7-dihydro-1H-imidazo[4,5-c]pyridin-5(4H)-yl)(2-((S)-1-hydroxyethyl)-4-methyloxazol-5-yl)methanone] | 1 to 5 | 
Cc1cc(F)cc2nc([C@H]3c4nc[nH]c4CCN3C(=O)c3oc(C(C)(C)O)nc3C(F)F)oc12 [Example 656, (R)-(4-(difluoromethyl)-2-(2-hydroxypropan-2-yl)oxazol-5-yl)(4-(5-fluoro-7-methylbenzo[d]oxazol-2-yl)-6,7-dihydro-1H-imidazo[4,5-c]pyridin-5(4H)-yl)methanone] | 1 to 5 | 
